Several values for one entry are separate records, joined by “and”; a condition that tells them apart may be missing. Identical values can stand only once. Like-named read-outs stand apart in the source and are kept apart here.
Tests used:
Assay type in all cases: cell-based
cancer cell lines = assay: In vitro cancer cell assays (antiproliferation, cell line not given)
Method: (§1) All cell lines were cultured at 37 °C with 5% CO2 in a humidified incubator. HeLa cells were grown in MEM (Gibco) supplemented with 10% fetal bovine serum (FBS, Hyclone) and 1% penicillin/streptomycin (Gibco). MIA PaCa-2, MDA-MB-231, A549, MCF-7, A375 and BEAS-2B cells were grown in DMEM (Gibco) supplemented with 10% FBS and 1% penicillin/streptomycin. CT26, and HCT116 cells were grown in RPMI-1640 supplemented with 10% FBS and 1% penicillin/streptomycin. All cell lines were purchased from the National Collection of Authenticated Cell Cultures (China).
(§2) The antiproliferative activities of the prepared compounds against tested cell lines were evaluated using a standard (MTT)-based colorimetric assay. Cells were plated at a density of 3000 cells/well in 96-well plates and allowed to adhere overnight. Then cells were treated with varying concentrations of synthesized compounds for 72 h. At the end of treatment, 20 μL of thiazolyl blue tetrazolium bromide (MTT) solution (5 mg/mL) was added to each well. Cells were incubated for an additional 4 h at 37 °C and then the medium was removed and replaced with 200 μL of DMSO. The absorbance (OD490) was read on a microplate reader (SpectraMax i3x, Molecular Devices, US). In all experiments, three replicate wells were used for each drug concentration. Each assay was performed at least three times. The IC50 values were calculated by GraphPad Prism 9, which were the mean values derived from three independent experiments.

MDA-MB-231 = assay: MTT cell viability assay, MDA-MB-231
Method: as §1, §2

HCT 116 = assay: MTT cell viability assay, HCT 116
Method: as §1, §2

Hela = assay: MTT cell viability assay, Hela
Method: as §1, §2

MIA PaCa-2 = assay: MTT cell viability assay, MIA PaCa-2
Method: as §1, §2

A549 = assay: MTT cell viability assay, A549
Method: as §1, §2

[1] = MTT cytotoxicity towards normal cells, BEAS-2B; settings: human; for IC50 at 72 h: BEAS-2B lung epithelial cells (normal cells), source data sheet, single values of three experiments; for CC50 at 72 h: BEAS-2B lung epithelial cells, MTT, cytotoxicity towards normal cells, mean of at least three independent experiments
Method: as §1, §2

CT26 = assay: MTT cell viability assay, CT26
Method: as §1, §2

A375 = assay: MTT cell viability assay, A375
Method: as §1, §2

MCF-7 = assay: MTT cell viability assay, MCF-7
Method: as §1, §2

[2] = tested on: lung epithelial BEAS-2B cells; assay: MTT cytotoxicity towards normal cells, BEAS-2B
Method: as §1, §2

[3] = Homo sapiens, MDA-MB-231, 72 h, MTT, 72 h, mean of at least three independent experiments, read-out: IC50 MDA-MB-231
[4] = Homo sapiens, MDA-MB-231, source data sheet, single values of three experiments, read-out: MTT IC50 MDA-MB-231
[5] = source data sheet, single values of three experiments, read-out: MTT IC50 MDA-MB-231
[6] = Homo sapiens, HCT-116, 72 h, MTT, 72 h, mean of at least three independent experiments, read-out: IC50 HCT 116
[7] = Homo sapiens, HCT-116, source data sheet, single values of three experiments, read-out: MTT IC50 HCT-116
[8] = source data sheet, single values of three experiments, read-out: MTT IC50 HCT-116
[9] = Homo sapiens, HeLa, 72 h, MTT, 72 h, mean of at least three independent experiments, read-out: IC50 Hela
[10] = Homo sapiens, HeLa, source data sheet, single values of three experiments, read-out: MTT IC50 Hela
[11] = source data sheet, single values of three experiments, read-out: MTT IC50 Hela
[12] = Homo sapiens, MIA PaCa-2, 72 h, MTT, 72 h, mean of at least three independent experiments, read-out: IC50 MIA PaCa-2
[13] = Homo sapiens, MIA PaCa-2, source data sheet, single values of three experiments, read-out: MTT IC50 MIA PaCa-2
[14] = source data sheet, single values of three experiments, read-out: MTT IC50 MIA PaCa-2
[15] = Homo sapiens, A549, 72 h, MTT, 72 h, mean of at least three independent experiments, read-out: IC50 A549
[16] = Homo sapiens, A549, source data sheet, single values of three experiments, read-out: MTT IC50 A549
[17] = source data sheet, single values of three experiments, read-out: MTT IC50 A549
[18] = Mus musculus, CT26, 72 h, MTT, 72 h, mean of at least three independent experiments, read-out: IC50 CT26
[19] = Mus musculus, CT26, source data sheet, single values of three experiments, read-out: MTT IC50 CT-26
[20] = source data sheet, single values of three experiments, read-out: MTT IC50 CT-26
[21] = Homo sapiens, A-375, 72 h, MTT, 72 h, mean of at least three independent experiments, read-out: IC50 A375
[22] = Homo sapiens, A-375, source data sheet, single values of three experiments, read-out: MTT IC50 A375
[23] = source data sheet, single values of three experiments, read-out: MTT IC50 A375
[24] = Homo sapiens, MCF7, 72 h, MTT, 72 h, mean of at least three independent experiments, read-out: IC50 MCF-7
[25] = Homo sapiens, MCF7, source data sheet, single values of three experiments, read-out: MTT IC50 MCF-7
[26] = source data sheet, single values of three experiments, read-out: MTT IC50 MCF-7

Structure (SMILES) | IC50 (MDA-MB-231; [3]) [µM] | IC50 (MDA-MB-231; [4]) [µM] | IC50 (MDA-MB-231; [5]) | IC50 (HCT 116; [6]) [µM] | IC50 (HCT 116; [7]) [µM] | IC50 (HCT 116; [8]) | IC50 (Hela; [9]) [µM] | IC50 (Hela; [10]) [µM] | IC50 (Hela; [11]) | IC50 (MIA PaCa-2; [12]) [µM] | IC50 (MIA PaCa-2; [13]) [µM] | IC50 (MIA PaCa-2; [14]) | IC50 (A549; [15]) [µM] | IC50 (A549; [16]) [µM] | IC50 (A549; [17]) | IC50 at 72 h [1] [µM] | CC50 at 72 h [1] [µM] | IC50 (CT26; [20]) | IC50 (A375; [23]) | IC50 (MCF-7; [26]) | also measured
C=C=C1CN2[C@H]3C[C@H]1[C@H](CO)[C@@H]2Cc1c3n(S(=O)(=O)c2ccc(C)cc2)c2ccccc12 [Compound 15ao] |  |  |  |  |  |  |  |  |  |  |  |  |  |  |  |  |  |  |  |  | loss in antiproliferation activity on replacing the aldehyde group (cancer cell lines; SAR statement in words): complete
C=C=C1CN2[C@H]3C[C@H]1[C@H](C=O)[C@@H]2Cc1c3n(S(=O)(=O)c2ccc(C)cc2)c2ccc(Br)cc12 [Compound 15af] | 5.39 | 5.02 | 7.05 µM and 4.11 µM | 9.98 | 11.7 | 8.41 µM and 9.85 µM | 8.56 | 9.81 | 7.52 µM and 8.35 µM | 20.2 | 20.5 | 23 µM and 17 µM | 14.8 | 17 | 12.5 µM and 14.9 µM | > 100 | > 100 | 18.8 µM and 14.8 µM | 9.41 µM and 6.25 µM | 20.1 µM and 19.2 µM | IC50 (CT26; [18]): 15.8 µM; IC50 (CT26; [19]): 13.8 µM; IC50 (A375; [21]): 7.51 µM; IC50 (A375; [22]): 6.87 µM; IC50 (MCF-7; [24]): 18.1 µM; IC50 (MCF-7; [25]): 15 µM
C=C=C1CN2[C@H]3C[C@H]1[C@H](C=O)[C@@H]2Cc1c3n(S(=O)(=O)c2ccc(C)cc2)c2cccc(Br)c12 [Compound 15ae] |  |  | 25.1 µM and 24.3 µM and 26.8 µM |  |  | 30 µM and 26.1 µM and 27.9 µM |  |  | 34.5 µM and 31.3 µM and 30.4 µM |  |  | 39.9 µM and 44.1 µM and 36.8 µM |  |  | 44.1 µM and 40.9 µM and 43.6 µM |  |  | 32.8 µM and 27.5 µM and 30 µM | 23.6 µM and 17.1 µM and 20.5 µM | 35.2 µM and 29.7 µM and 31.4 µM | IC50 (MDA-MB-231; MTT, 72 h, mean of at least three independent experiments, read-out: IC50 MDA-MB-231): 25.4 µM; IC50 (HCT 116; MTT, 72 h, mean of at least three independent experiments, read-out: IC50 HCT 116): 28 µM; IC50 (Hela; MTT, 72 h, mean of at least three independent experiments, read-out: IC50 Hela): 32.1 µM; IC50 (MIA PaCa-2; MTT, 72 h, mean of at least three independent experiments, read-out: IC50 MIA PaCa-2): 40.3 µM; IC50 (A549; MTT, 72 h, mean of at least three independent experiments, read-out: IC50 A549): 42.9 µM; CC50 ([2]; MTT, 72 h, cytotoxicity towards normal cells, mean of at least three independent experiments): > 100 µM; IC50 ([2]; source data sheet, single values of three experiments): > 100 µM; IC50 (CT26; MTT, 72 h, mean of at least three independent experiments, read-out: IC50 CT26): 30.1 µM; IC50 (A375; MTT, 72 h, mean of at least three independent experiments, read-out: IC50 A375): 20.4 µM; IC50 (MCF-7; MTT, 72 h, mean of at least three independent experiments, read-out: IC50 MCF-7): 32.1 µM
C=C=C1CN2[C@H]3C[C@H]1[C@H](C=O)[C@@H]2Cc1c3n(S(=O)(=O)c2ccc(C(F)(F)F)cc2)c2ccccc12 [Compound 15am] |  |  |  |  |  |  |  |  |  |  |  |  |  |  |  |  |  |  |  |  | IC50 (cancer cell lines; cell line not given): > 50 µM
C=C=C1CN2[C@H]3C[C@H]1[C@H](C=O)[C@@H]2Cc1c3n(S(=O)(=O)c2ccc(C)cc2)c2cc(F)ccc12 [Compound 15aj] | 14 | 16.4 | 11.5 µM and 14.1 µM | 18.9 | 20.1 | 20.3 µM and 16.2 µM | 18.8 | 21.3 | 16.8 µM and 18.3 µM | 24.1 | 24.2 | 22.1 µM and 26 µM | 26.2 | 28.5 | 27.4 µM and 22.6 µM | > 100 | > 100 | 23.2 µM and 26 µM | 11.2 µM and 13.4 µM | 28.1 µM and 29.2 µM | IC50 (CT26; [18]): 24.3 µM; IC50 (CT26; [19]): 23.7 µM; IC50 (A375; [21]): 13.4 µM; IC50 (A375; [22]): 15.7 µM; IC50 (MCF-7; [24]): 30.3 µM; IC50 (MCF-7; [25]): 33.5 µM
C=C=C1CN2[C@H]3C[C@H]1[C@H](C=O)[C@@H]2Cc1c3n(S(=O)(=O)c2ccc(C)cc2)c2cc(Br)ccc12 [Compound 15ag] | 8.59 | 8.05 | 9.71 µM and 8.01 µM | 12.4 | 14 | 13 µM and 10.3 µM | 9.89 | 11.8 | 9.92 µM and 7.92 µM | 22.8 | 25 | 21.3 µM and 22 µM | 18.2 | 20.1 | 15.3 µM and 19.1 µM | > 100 | > 100 | 15.8 µM and 16.1 µM | 7.82 µM and 8.4 µM | 21.6 µM and 18.5 µM | IC50 (CT26; [18]): 17.3 µM; IC50 (CT26; [19]): 20 µM; IC50 (A375; [21]): 8.88 µM; IC50 (A375; [22]): 10.4 µM; IC50 (MCF-7; [24]): 20.9 µM; IC50 (MCF-7; [25]): 22.6 µM

— PMC10492809, “A Bischler-Napieralski and homo-Mannich sequence enables diversified syntheses of sarpagine alkaloids and analogues” (Nature Communications, 2023)
